Laboratory results as given in EP1448559B1, “5-(4-(2-(N-METHYL-N-(2-PYRIDYL)AMINO)ETHOXY)BENZYL)THIAZOLIDINE-2,4-DIONE BENZENESULFONATE; PROCESS FOR ITS PREPARATION; POLYMORPHS I, II AND III THEREOF; AND ITS USE AS PHARMACEUTICAL ACTIVE INGREDIENT” (SMITHKLINE BEECHAM PLC, priority 2001, dated 2003).

Experiment: Solubility in water (visual, confirmed by HPLC assay of a saturated solution)

Row | Compound | solubility (water added in aliquots from 1 to 1000ml to approximately 100mg of drug substance, confirmed by HPLC assay of a saturated solution) [µg/mL] | solubility (water) [µg/mL]
1 | CN(CCOc1ccc(CC2SC(=O)NC2=O)cc1)c1ccccn1 (centres unmarked) [Benzenesulfonate Form II, 5-[4-[2-(N-Methyl-N-(2-pyridyl)amino)ethoxy]benzyl]thiazolidine-2,4-dione benzenesulfonate Form II] | 1400 | 
2 | CN(CCOc1ccc(CC2SC(=O)NC2=O)cc1)c1ccccn1 (centres unmarked) [Benzenesulfonate propan-2-ol solvate, 5-[4-[2-(N-Methyl-N-(2-pyridyl)amino)ethoxy]benzyl]thiazolidine-2,4-dione benzenesulfonate propan-2-ol solvate] |  | 1600
